≈ marks a conversion by molar mass, not a printed value.
Assay: Approximate solubility of Form A in solvents at room temperature
Type: physicochemical
Protocol: The approximate solubility of Form A was estimated in 27 solvents or co-solvents at room temperature. Approximately 2 mg of solids were weighed into each 3 mL glass vial, to which each of the solvents was added in stepwise until the solids dissolved completely or the total volume reaches 2.0 mL. Solubility ranges were used to guide the solvent selection for polymorph screening described in later examples.

C[C@@H](COCCC(=O)N1CCN(c2ncc(C(F)(F)F)cn2)CC1)Nc1cn[nH]c(=O)c1C(F)(F)F [Form A, 5-[[(2S)-1-(3-oxo-3-[4-[5-(trifluoromethyl)pyrimidin-2-yl]piperazin-1-yl]propoxy)propan-2-yl]amino]-4-(trifluoromethyl)-2,3-dihydropyridazin-3-one]
solubility (organic solvent or mixture, thermodynamic from solid, 1,4-Dioxane): 5000 to 10000 µg/mL (≈ 9.55 to 19.1 mM)
solubility (organic solvent or mixture, thermodynamic from solid, 2-MeTHF): < 1000 µg/mL
solubility (organic solvent or mixture, thermodynamic from solid, ACN): 11000 to 22000 µg/mL (≈ 21 to 42 mM)
solubility (organic solvent or mixture, thermodynamic from solid, ACN/MIBK (1:9) v:v): 2000 to 5000 µg/mL (≈ 3.82 to 9.55 mM)
solubility (organic solvent or mixture, thermodynamic from solid, ACN/MTBE (1:9) v:v): 1200 to 2400 µg/mL (≈ 2.29 to 4.59 mM)
solubility (organic solvent or mixture, thermodynamic from solid, ACN/THF (1:4) v:v): 5000 to 10000 µg/mL (≈ 9.55 to 19.1 mM)
solubility (organic solvent or mixture, thermodynamic from solid, ACN/THF (1:9) v:v): 10000 to 20000 µg/mL (≈ 19.1 to 38.2 mM)
solubility (organic solvent or mixture, thermodynamic from solid, Acetone): > 40000 µg/mL
solubility (organic solvent or mixture, thermodynamic from solid, Acetone/n-Heptane (1:4) v:v): < 1300 µg/mL
solubility (organic solvent or mixture, thermodynamic from solid, Acetone/n-Heptane (1:9) v:v): < 1000 µg/mL
solubility (organic solvent or mixture, thermodynamic from solid, CHCl3): 22000 to 44000 µg/mL (≈ 42 to 84.1 mM)
solubility (organic solvent or mixture, thermodynamic from solid, DCM): 19000 to 38000 µg/mL (≈ 36.3 to 72.6 mM)
solubility (organic solvent or mixture, thermodynamic from solid, DCM/MTBE (1:9) v:v): < 1200 µg/mL
solubility (organic solvent or mixture, thermodynamic from solid, DMAc): 22000 to 44000 µg/mL (≈ 42 to 84.1 mM)
solubility (organic solvent or mixture, thermodynamic from solid, DMSO): > 42000 µg/mL
solubility (organic solvent or mixture, thermodynamic from solid, EtOAc): 1900 to 4800 µg/mL (≈ 3.63 to 9.17 mM)
solubility (organic solvent or mixture, thermodynamic from solid, EtOH): < 1100 µg/mL
solubility (organic solvent or mixture, thermodynamic from solid, IPA): < 1100 µg/mL
solubility (organic solvent or mixture, thermodynamic from solid, IPAc): < 1100 µg/mL
solubility (organic solvent or mixture, thermodynamic from solid, MIBK): < 1000 µg/mL
solubility (organic solvent or mixture, thermodynamic from solid, MTBE): < 1000 µg/mL
solubility (organic solvent or mixture, thermodynamic from solid, MeOH): < 1100 µg/mL
solubility (organic solvent or mixture, thermodynamic from solid, NMP): > 38000 µg/mL
solubility (organic solvent or mixture, thermodynamic from solid, THF): < 1100 µg/mL
solubility (organic solvent or mixture, thermodynamic from solid, Toluene): < 1000 µg/mL
solubility (organic solvent or mixture, thermodynamic from solid, n-Heptane): < 1000 µg/mL
solubility (water, thermodynamic from solid, H2O): < 1100 µg/mL

— patent publication US12371421B2, “Solid forms of a PARP7 inhibitor” (Ribon Therapeutics, Inc., priority 2019, dated 2025)
